Measurements taken from patent publication US20210186915A1, “PHARMACEUTICAL COMPOSITIONS HAVING HIGH DRUG LOADINGS OF MEDIUM CHAIN TRIGLYCERIDES AND METHODS RELATED THERETO” (Cerecin Inc., priority 2018, published 2021).

Columns and labels:
[1] = USP Type II sink dissolution, 2.0 wt % SLS in pH 6.8 buffer; format: physicochemical; settings: for % LC Release, 10μ filtered: 500 mgA in 900 mL, 37° C.
Procedure: LMPs 1, 2, and 3 were tested in a USP Type II sink dissolution experiment along with caprylic triglyceride (Miglyol 808) oil. 500 mgA of formulation was dosed into a 1000 mL vessel containing 900 mL of 2.0wt % SLS in pH 6.8 buffer. Samples were taken at 30 minutes and 17.5 hours.
LMP-5, 7, 9, and 11 formulations were tested in a USP Type II sink dissolution experiment sink performance test using methods outlined described in EXAMPLE 3 (Tables 3-A, 3-B). […] The release rate trends as expected, in that adding more carnauba wax to the LMP matrix slows the dissolution. This is because carnauba wax is more hydrophobic than Compritol 888. […] Adding a pore former to the base LMP-11 formulation may allow for increased dissolution performance by enhancing water permeability while maintaining the desirable physical and handling attributes.
Formulations BREC1690-155, 156, 160, 161, and 162 were tested in a sink dissolution performance test using methods outlined herein at EXAMPLE 3 (Tables 3-A and 3-B). The dissolution rate was increased by the addition of a water soluble component (PVP 17PF, PVP-VA 64 or poloxamer P407). Dissolution was tested on formulations BREC1690-155, 156, 160, 161, and 162. Comparisons of previous Compritol based LMPs (LMP-2 and LMP-5) and BREC1690- 155, 156, and 162 with a dissolution enhancer are shown in FIG. 22.

[2] = Visual dissolution study in SLS/water solution (scintillation vials); format: physicochemical; settings: 250 mg oil in 10 ml 0.25% or 0.5% SLS in water, stirred 20 minutes
Procedure: Visual dissolution studies were conducted at small scale using 20 ml scintillation vials on LMP formulations 1 through 3. The test was conducted at 37° C., 25° C. and 5° C. using a 0.25% Sodium Laurel Sulfate (SLS) in water solution. A heated aluminum block and heated stir plate were used in the study. 500 mg (250 mgA, 25 mgA/mL) of each LMP formulation was added to 10 mL pre-heated 0.25% SLS solution. The samples were stirred using a Teflon stir bar on a heated stir plate to maintain temperature for 20 minutes. After 20 minutes, the LMP suspensions were allowed to settle and were assessed visually.
Finally the test was repeated using only LMP-1 and a 0.5% SLS/water solution to access if additional surfactant would help with the apparent dissolution by increasing the solubility of the oil in water.
An oil dissolution control test was conducted to determine how the caprylic triglyceride (Miglyol 808) oil dissolves into an SLS/water solution. Two SLS stock solutions were made at 0.25% and 0.5% SLS in water. 10 ml of each SLS solution was added to a scintillation vial along with a magnetic stir bar. 250 mg of caprylic triglyceride (Miglyol 808) oil was added to each vial and stirred for 20 minutes. Images were taken after 10 minutes and two days. […] The vial does appear slightly hazy in the 10 minute photo indicating some oil is likely emulsified in the water phase. […]

caprylic triglyceride [Miglyol 808]
% LC Release, centrifuged ([1]; 30 minutes): 31.6% ± 2% | % LC Release, 10μ filtered ([1]; 30 minutes): 64% (n = 1) % LC | % LC Release, 0.2μ filtered ([1]; 17.5 hours): 87% ± 7% | % LC Release, centrifuged ([1]; 17.5 hours): 27.3% ± 0.6% | % LC Release, 10μ filtered ([1]; 17.5 hours): 46.5% ± 0.5% | oil dissolution control, visual [2]: majority of the oil floats on top of the water rather than going into solution
